# Assay results reported in article PMC5295395, “Inhibition of PlexA1-mediated brain tumor growth and tumor-associated angiogenesis using a transmembrane domain targeting peptide” (Oncotarget, 2016).
# Assays:
# [1] = tested on: GBM tumors grafted in brain of immunocompromised mice; assay: orthotopic GBM graft in mouse brain; type: in vivo, human cells in mouse; settings: i.p., 1 μg/kg every 3 days for 3 weeks, 1.5 µg/kg 3 times per week
# Method: To address the biological consequences of MTP-PlexA1-mediated inhibition of PlexA1 we used the U118MG-Luc glioma cell line genetically engineered to express the luciferase reporter gene. […] Cells were then grafted subcutaneously and tumor growth was monitored every 5 days for a total period of 20 days. […] The quantitative analysis of the cumulated luminescent signal acquired all along the protocol confirmed the strong reduction of tumor development translating into a marked 75% reduction of the averaged luminescent signal at the end point (Figure 6C). […] However, responses were strong for 8 out of 10 mice with some responses close to 100%, all of them being at least Partial Response (PR) (Figure 6D). In order to clarify the mechanism by which MTP-PlexA1 is exerting tumor growth inhibition we collected tumors and analyzed them histologically.
# Supplementary Figure S5: We performed an orthotropic grafting experiment to monitor the effect of MTP-PlexA1 on GBM tumors developing in their native microenvironment. All procedures using animals are submitted to the Animal Care and Use Committee of AL/54/61/02/13. Immunocompromised mice are anesthetized with isoflurane 3% (BAXTER), under 0.5 L O2, and received a subcutaneous injection of ketofen 1% 1.5 mL/Kg (MERIAL). The scalp is incised and 100 000 cells of the dissociated GBM biopsy were engrafted with a 2 µL Hamilton syringe (HARVARD APPARATUS; HAM-88400) mounted on a stereotaxic set up (HARVARD APPARATUS) to inject cells at the following coordinates from the bregma x: −2 mm; y: +1 mm; z: −3.5 mm at a speed of 0.66 µl/min, 5 minutes after the syringe introduction. […] Tumor volume is calculated by the addition of every partial volume: [V total = Σ partial volumes = Σ d1 × (S1 + S2)/2 + d2 x (S2 + S3)/2 + … + dn x […]]. […] The immunostaining procedure used to quantify proliferation and vascularization of the tumor is described in the method section.While not strongly impacting tumor volume (−14.5%, p = 0.54, Mann Whitney test) the intraperitoneal […]
# VEGFR-2 phosphorylation = assay: ELISA of VEGFR-2 phosphorylation in HUVEC cells; type: cell-based, human; settings: VEGF 100 ng/ml
# Method: (C) Rac-1 activation assay in resting condition and after Sema3A-induced Rac-1 activation in U373 MG cells. (D) Western blot analysis of phosphorylated Akt, total Akt and tubulin in U373MG cells treated with the vehicle (LDS 72 μM), Sema3A (100 ng/ml) or Sema3A + MTP-PlexA1 (10^−7 M). The lower panel is showing the quantification of the p-Akt/Akt ratio in the different conditions. (E) MTP-PlexA1 decreases VEGFR-2 phosphorylation induced by VEGF (100 ng/ml) in HUVEC cells.
# PlexA1 is a Rho-GTPase activating protein. Consistently, it has been shown that in response to Sema3A, the Rho-GTPase Rac1 is activated and sequestered at the plasma membrane. […] Moreover, it has been shown that Sema3A inhibits Akt phosphorylation through binding of Rnd1 to PlexA1. […] From these experiments we concluded that MTP-PlexA1 is able to antagonize major signaling pathways of PlexA1 receptor.
sequence,measurement,setting,value
"TLPAIVGIGGGGGLLLLVIVAVLIAYKRK [MTP-PlexA1, synthetic transmembrane peptide mimicking the TMD of PlexA1]","change of tumor volume, orthotopic","[1]; n = 12, p = 0.54, Mann Whitney",−14.5%
same,"change of PH3 positive cells, orthotopic",[1]; p = 0.0023,−38.3%
same,"change of angiogenesis, orthotopic",[1]; p = 0.0378,−14.3%
same,change of VEGF-induced phosphorylation of VEGFR-2,VEGFR-2 phosphorylation,−26%
